Measured values taken from ChEMBL document CHEMBL3856231 (J Med Chem, 2016).
pIC50, pKd: −log10 of the molar value. The source made the active and inactive calls. The rule behind the calls is not given here.

How the values were obtained:
[1] = Clearance in CD-1 mouse at 1 mg/kg, iv by LC/MS/MS analysis; assay type: ADME, organism-based; conditions: in vivo
[2] = molecular target: T1, Cytochrome P450 1A2 (Homo sapiens, UniProt P05177); experiment: Inhibition of CYP1A2 in human liver microsomes using phenacetin as substrate in presence of NADPH by LC/MS/MS analysis; assay type: ADME
T1 sequence (P05177 whole entry): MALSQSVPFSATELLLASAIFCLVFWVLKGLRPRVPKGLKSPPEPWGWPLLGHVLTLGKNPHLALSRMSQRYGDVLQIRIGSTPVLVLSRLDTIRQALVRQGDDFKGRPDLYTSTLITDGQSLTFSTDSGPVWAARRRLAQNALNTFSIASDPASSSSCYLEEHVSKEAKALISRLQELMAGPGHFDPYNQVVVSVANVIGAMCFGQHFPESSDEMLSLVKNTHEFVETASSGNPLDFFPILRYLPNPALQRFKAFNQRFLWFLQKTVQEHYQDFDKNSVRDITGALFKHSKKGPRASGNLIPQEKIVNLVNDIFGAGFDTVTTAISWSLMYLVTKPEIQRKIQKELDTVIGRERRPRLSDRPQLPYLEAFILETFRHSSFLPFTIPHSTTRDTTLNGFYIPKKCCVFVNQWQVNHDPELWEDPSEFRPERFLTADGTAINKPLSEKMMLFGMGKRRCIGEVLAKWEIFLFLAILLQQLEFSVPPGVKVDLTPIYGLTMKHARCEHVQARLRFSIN

[3] = molecular target: Cytochrome P450 2C9 (Homo sapiens, UniProt P11712); experiment: Inhibition of CYP2C9 in human liver microsomes using diclofenac as substrate in presence of NADPH by LC/MS/MS analysis; assay type: ADME
[4] = molecular target: Cytochrome P450 2D6 (Homo sapiens, UniProt P10635); experiment: Inhibition of CYP2D6 in human liver microsomes using dextromethorphan as substrate in presence of NADPH by LC/MS/MS analysis; assay type: ADME
[5] = Half life in cynomolgus monkey liver microsomes by LC/MS/MS analysis; assay type: ADME, Macaca fascicularis
[6] = Oral bioavailability in Sprague-Dawley rat at 5 mg/kg by LC/MS/MS analysis; assay type: ADME, organism-based; conditions: in vivo
[7] = Binding affinity to partial length human ALK 1151Tins mutant expressed in mammalian system by KINOMEscan assay
[8] = Half life in cynomolgus monkey at 1 mg/kg, iv by LC/MS/MS analysis; assay type: ADME, organism-based, Macaca fascicularis; conditions: in vivo
[9] = AUC (0 to infinity) in cynomolgus monkey at 1 mg/kg, iv by LC/MS/MS analysis; assay type: ADME, organism-based, Macaca fascicularis; set-up: dose 1 mg/kg, route intravenous, time infinity; conditions: in vivo
[10] = Volume of distribution in CD-1 mouse at 1 mg/kg, iv by LC/MS/MS analysis; assay type: ADME, organism-based; conditions: in vivo
[11] = Volume of distribution in cynomolgus monkey at 1 mg/kg, iv by LC/MS/MS analysis; assay type: ADME, organism-based, Macaca fascicularis; conditions: in vivo
[12] = Cmax in cynomolgus monkey at 10 mg/kg, po by LC/MS/MS analysis; assay type: ADME, organism-based, Macaca fascicularis; set-up: dose 10 mg/kg, route oral; conditions: in vivo
[13] = Tmax in Sprague-Dawley rat at 5 mg/kg, po by LC/MS/MS analysis; assay type: ADME, organism-based; conditions: in vivo
[14] = AUC (0 to 48 hrs) in Sprague-Dawley rat brain at 30 mg/kg, po by LC/MS/MS analysis; assay type: ADME, organism-based; set-up: dose 30 mg/kg, time < 48 hr, route oral
[15] = Dose normalized AUC in CD-1 mouse at 10 mg/kg, po by LC/MS/MS analysis; assay type: ADME, organism-based; conditions: in vivo
[16] = Dose normalized AUC in cynomolgus monkey at 10 mg/kg, po by LC/MS/MS analysis; assay type: ADME, organism-based, Macaca fascicularis; conditions: in vivo
[17] = Cytotoxicity against human KARPAS299 cells expressing NPM-ALK assessed as cell growth inhibition; assay type: functional, cell-based; conditions: KARPAS-299
[18] = test system: SUP-M2; experiment: Induction of apoptosis assessed as caspase 3/7 activation in human SUP-M2 cells expressing NPM-ALK; assay type: functional, cell-based
[19] = test system: KARPAS-299; experiment: Induction of apoptosis assessed as caspase 3/7 activation in human KARPAS299 expressing NPM-ALK; assay type: functional
[20] = (§1) Cytotoxicity against human NCI-H2228 cells expressing EML4-ALK assessed as cell growth inhibition; assay type: functional, cell-based
[21] = test system: NCI-H2228; experiment: as §1; assay type: functional, cell-based
[22] = Drug level in plasma of NPM-ALK expressing human SUP-M2 cells xenografted mouse at 30 mg/kg, po administered as single dose measured at 2 hrs by LC-MS/MS analysis; assay type: ADME, organism-based
[23] = Drug level in plasma of NPM-ALK expressing human SUP-M2 cells xenografted mouse at 30 mg/kg, po administered as single dose measured at 12 hrs by LC-MS/MS analysis; assay type: ADME, organism-based
[24] = Drug level in tumor of NPM-ALK expressing human SUP-M2 cells xenografted mouse at 30 mg/kg, po administered as single dose measured at 24 hrs by LC-MS/MS analysis; assay type: ADME, organism-based, Neoplasm; conditions: read-out: Drug uptake
[25] = test system: SUP-M2; experiment: Antitumor activity against human SUP-M2 cells expressing NPM-ALK xenografted in SCID-Beige mouse assessed as tumor regression at 30 mg/kg, po qd administered for 12 days measured during compound dosing; assay type: functional, organism-based
[26] = test system: NCI-H2228; experiment: Antitumor activity against human NCI-H2228 cells expressing EML4-ALK xenografted in SCID-Beige mouse assessed as reduction in tumor re-emergence at 30 and 55 mg/kg, po bid for 11 days followed by switching of drug schedule to 55 mg/kg, po qd on day 12 up to day 40 and measured on day 80; assay type: functional, organism-based
[27] = Drug level in plasma of FAK expressing human CWR22 cells xenografted Nu/Nu mouse at 55 mg/kg, po administered as single dose measured at 6 hrs by LC-MS/MS analysis; assay type: ADME, organism-based
[28] = Drug level in tumor of FAK expressing human CWR22 cells xenografted Nu/Nu mouse at 55 mg/kg, po administered as single dose measured at 6 hrs by LC-MS/MS analysis; assay type: ADME, organism-based, Neoplasm; conditions: read-out: Drug uptake
[29] = Drug level in plasma of FAK expressing human CWR22 cells xenografted Nu/Nu mouse at 55 mg/kg, po administered as single dose measured at 12 hrs by LC-MS/MS analysis; assay type: ADME, organism-based
[30] = Drug level in tumor of FAK expressing human CWR22 cells xenografted Nu/Nu mouse at 55 mg/kg, po administered as single dose measured at 12 hrs by LC-MS/MS analysis; assay type: ADME, organism-based, Neoplasm; conditions: read-out: Drug uptake
[31] = test system: HCC827; experiment: Antitumor activity against human HCC827 cells expressing activated FAK xenografted in SCID-Beige mouse assessed as tumor growth inhibition at 30 mg/kg, po bid administered for 28 days; assay type: functional, organism-based
[32] = test system: Mus musculus; experiment: Toxicity in SCID-Beige mouse xenografted with human HCC827 cells expressing activated FAK assessed as body weight loss at 30 to 55 mg/kg, po bid administered for 28 days measured every 2 to 3 days; assay type: organism-based; conditions: in vivo
[33] = Antitumor activity against human CTG-0142 cells expressing activated FAK xenografted in mouse assessed as tumor growth inhibition at 55 mg/kg, po bid administered for 28 days measured during compound dosing; assay type: functional; conditions: CTG-0142, po, 672 h, read-out: TGI
[34] = test system: IBC; experiment: Cytotoxicity against human IBC cells assessed as reduction in cell proliferation; assay type: functional, cell-based
[35] = molecular target: ALK tyrosine kinase receptor (Homo sapiens, UniProt Q9UM73); conditions: 1 uM
ALK tyrosine kinase receptor, sequence (Q9UM73 19-1620 limits assumed): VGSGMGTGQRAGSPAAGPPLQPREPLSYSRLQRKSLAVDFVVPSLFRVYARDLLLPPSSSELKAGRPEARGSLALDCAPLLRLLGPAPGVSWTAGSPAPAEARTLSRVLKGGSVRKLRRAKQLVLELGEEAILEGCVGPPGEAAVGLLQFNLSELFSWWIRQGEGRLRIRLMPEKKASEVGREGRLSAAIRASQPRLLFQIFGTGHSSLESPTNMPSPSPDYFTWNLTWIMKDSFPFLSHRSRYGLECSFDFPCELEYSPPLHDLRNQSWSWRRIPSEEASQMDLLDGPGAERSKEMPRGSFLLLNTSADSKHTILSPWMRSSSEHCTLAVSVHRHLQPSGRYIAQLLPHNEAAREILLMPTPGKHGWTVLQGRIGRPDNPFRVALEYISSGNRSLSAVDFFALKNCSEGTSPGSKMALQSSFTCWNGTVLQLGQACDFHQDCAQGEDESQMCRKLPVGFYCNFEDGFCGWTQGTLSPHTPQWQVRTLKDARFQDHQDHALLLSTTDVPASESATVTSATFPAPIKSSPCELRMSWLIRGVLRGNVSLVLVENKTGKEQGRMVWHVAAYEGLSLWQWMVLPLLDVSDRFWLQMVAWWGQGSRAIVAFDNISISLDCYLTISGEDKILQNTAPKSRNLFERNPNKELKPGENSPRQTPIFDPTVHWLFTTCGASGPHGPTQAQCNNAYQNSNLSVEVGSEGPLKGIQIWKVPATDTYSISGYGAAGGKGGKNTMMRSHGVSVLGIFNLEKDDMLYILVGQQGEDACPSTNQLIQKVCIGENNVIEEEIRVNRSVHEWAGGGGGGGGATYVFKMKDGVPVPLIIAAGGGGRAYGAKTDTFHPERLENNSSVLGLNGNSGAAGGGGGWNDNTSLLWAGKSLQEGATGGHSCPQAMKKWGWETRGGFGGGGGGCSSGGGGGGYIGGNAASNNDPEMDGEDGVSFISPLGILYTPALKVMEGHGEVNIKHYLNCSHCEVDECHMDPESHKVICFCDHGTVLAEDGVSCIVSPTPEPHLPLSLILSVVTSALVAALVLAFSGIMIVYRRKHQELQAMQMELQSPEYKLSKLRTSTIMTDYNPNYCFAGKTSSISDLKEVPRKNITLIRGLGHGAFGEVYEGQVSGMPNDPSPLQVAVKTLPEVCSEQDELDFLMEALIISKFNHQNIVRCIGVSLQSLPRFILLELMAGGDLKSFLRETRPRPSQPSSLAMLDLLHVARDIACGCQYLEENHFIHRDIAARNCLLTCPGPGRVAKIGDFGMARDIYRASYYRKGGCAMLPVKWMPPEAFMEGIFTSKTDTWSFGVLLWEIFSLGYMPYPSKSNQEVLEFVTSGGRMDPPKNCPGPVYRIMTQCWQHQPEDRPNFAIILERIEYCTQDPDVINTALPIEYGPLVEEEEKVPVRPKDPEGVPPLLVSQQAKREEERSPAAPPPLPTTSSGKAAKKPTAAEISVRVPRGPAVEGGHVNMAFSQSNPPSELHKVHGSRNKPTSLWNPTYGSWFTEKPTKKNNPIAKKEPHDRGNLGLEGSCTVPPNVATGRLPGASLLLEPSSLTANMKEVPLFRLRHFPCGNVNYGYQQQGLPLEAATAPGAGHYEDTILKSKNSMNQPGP
Description: Inhibition of human ALK (1088 to 1409 residues) expressed in mammalian system at 1 uM by KINOMEscan assay

Cytochrome P450 2D6, sequence (P10635 whole entry): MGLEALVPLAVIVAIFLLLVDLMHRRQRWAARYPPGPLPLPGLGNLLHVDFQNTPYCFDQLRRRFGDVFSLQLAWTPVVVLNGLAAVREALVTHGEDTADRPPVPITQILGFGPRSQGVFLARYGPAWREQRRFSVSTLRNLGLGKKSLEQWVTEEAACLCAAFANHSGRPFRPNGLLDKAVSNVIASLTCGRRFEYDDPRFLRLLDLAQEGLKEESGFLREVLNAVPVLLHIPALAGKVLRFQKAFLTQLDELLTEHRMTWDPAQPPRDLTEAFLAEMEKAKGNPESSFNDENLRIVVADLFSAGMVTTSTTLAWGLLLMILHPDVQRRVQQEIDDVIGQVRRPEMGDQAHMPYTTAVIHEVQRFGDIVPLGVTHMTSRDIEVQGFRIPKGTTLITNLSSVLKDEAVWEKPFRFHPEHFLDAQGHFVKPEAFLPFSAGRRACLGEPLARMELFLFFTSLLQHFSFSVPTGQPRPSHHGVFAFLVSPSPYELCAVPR
Cytochrome P450 2C9, sequence (P11712 whole entry): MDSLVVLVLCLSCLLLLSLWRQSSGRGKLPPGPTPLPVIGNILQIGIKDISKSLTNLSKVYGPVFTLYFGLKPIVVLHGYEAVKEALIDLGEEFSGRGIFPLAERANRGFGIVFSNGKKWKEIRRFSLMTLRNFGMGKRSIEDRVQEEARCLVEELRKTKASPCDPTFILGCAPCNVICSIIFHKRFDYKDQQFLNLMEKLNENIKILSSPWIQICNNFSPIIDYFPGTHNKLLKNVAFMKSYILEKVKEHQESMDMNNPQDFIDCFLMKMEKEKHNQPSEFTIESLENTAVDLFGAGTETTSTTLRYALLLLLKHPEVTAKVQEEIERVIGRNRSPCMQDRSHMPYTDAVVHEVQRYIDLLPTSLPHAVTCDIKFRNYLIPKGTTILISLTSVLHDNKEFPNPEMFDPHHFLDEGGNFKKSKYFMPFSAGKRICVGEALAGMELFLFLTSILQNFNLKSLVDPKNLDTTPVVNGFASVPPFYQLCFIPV

Compound `CNC(=O)c1ccccc1Nc1nc(Nc2ccc3c(c2OC)CCC[C@H](N2CCN(CCO)CC2)C3)ncc1Cl` [CEP-37440] has a clearance [1] of 10 mL/min/kg, a pIC50 [2] of under 5.25 and a pIC50 [3] of under 5.25. For the same compound, the pIC50 [4] was under 5.25, the half-life [5] was 0.35 h and the bioavailability [6] was 42%. It also gave a pKd [7] of 8.59, a half-life [8] of 5.4 h and an AUC(0-inf) [9] of 554 ng·h/mL. It also gave a Vd [10] of 2.7 L/kg, a Vd [11] of 13.2 L/kg and a Cmax [12] of 239 ng/mL. It also gave a Tmax [13] of 3.3 h, an AUC(0-t) at 48 h [14] of 61600 ng·h/mL and an AUC/dose [15] of 1643 ng·h/mL. For the same compound, the AUC/dose [16] was 276 ng·h/mL, the pIC50 [17] was 6.88 and the Activity [18] was “Active”. The Activity [19] was “Active”, the pIC50 [20] was 5.54 and the “growth inhibition (GI)” value [21] was “Dose-dependent effect”. For the same compound, the concentration at 2 h [22] was 4740 ng/mL, the concentration at 12 h [23] was 4030 ng/mL and the concentration at 24 h [24] was 8200 ng/g. For the same compound, the Activity [25] was “Active”, the Activity [26] was “Active” and the concentration at 6 h [27] was 3790 ng/mL. It also gave a concentration at 6 h [28] of 8680 ng/g, a concentration at 12 h [29] of 541 ng/mL and a concentration at 12 h [30] of 3810 ng/g. For the same compound, the TGI [31] was “Active”, the Activity [32] was “Non-Toxic” and the inhibition in vivo at 55 mg/kg [33] was 75%. For the same compound, the “growth inhibition (GI)” value [34] was “Dose-dependent effect” and the inhibition [35] was over 90%.
